Active and inactive are the calls of the source. No cut-off for these calls is given here.
Legend:
[1] = tested on: L02; test: Cytotoxicity against human L02 cells assessed as reduction in cell viability at 50 uM incubated for 24 hrs by MTT assay; assay type: toxicity, cell-based; details: l02, 24 h
[2] = tested on: PC-12; test: Neuroprotective activity against H2O2 induced rat PC12 cells assessed as increase in cell viability at 50 uM measured after 24 hrs by MTT assay relative to control; assay type: functional
[3] = tested on: L02; test: Cytotoxicity against human L02 cells assessed as reduction in cell viability at 12.5 uM incubated for 24 hrs by MTT assay; assay type: toxicity, cell-based; details: l02, 24 h
[4] = biological target: Cholinesterase (Equus caballus, UniProt P81908); test: Inhibition of equine BuChE using butyrylthiocholine iodide as substrate preincubated with enzyme for 20 mins followed by substrate addition and measured after 20 mins by Ellman's method
[5] = biological target: Acetylcholinesterase (Electrophorus electricus) (UniProt O42275); test: Inhibition of electric eel AChE using acetylthiocholine iodide as substrate preincubated with enzyme for 20 mins followed by substrate addition and measured after 20 mins by Ellman's method; set-up: concentration or dose not given beside the values; details: time 40.0 min
[6] = biological target: Acetylcholinesterase (Electrophorus electricus) (UniProt O42275); test: Inhibition of electric eel AChE using acetylthiocholine iodide as substrate preincubated with enzyme for 20 mins followed by substrate addition and measured after 20 mins by Ellman's method relative to control; set-up: concentration or dose not given beside the values; details: time 40.0 min
[7] = biological target: Acetylcholinesterase (Homo sapiens) (UniProt P22303); test: Inhibition of recombinant human AChE using acetylthiocholine iodide as substrate incubated for 5 mins relative to control
[8] = biological target: T1, Cholinesterase (Homo sapiens, UniProt P06276); test: Inhibition of human BuChE using butyrylthiocholine iodide as substrate incubated for 5 mins
[9] = biological target: T2, Fatty-acid amide hydrolase 1 (Homo sapiens, UniProt O00519); test: Inhibition of human FAAH using arachidonoyl amide as substrate incubated for 30 mins by fluorescence-based cayman assay
T2 sequence (O00519 whole entry): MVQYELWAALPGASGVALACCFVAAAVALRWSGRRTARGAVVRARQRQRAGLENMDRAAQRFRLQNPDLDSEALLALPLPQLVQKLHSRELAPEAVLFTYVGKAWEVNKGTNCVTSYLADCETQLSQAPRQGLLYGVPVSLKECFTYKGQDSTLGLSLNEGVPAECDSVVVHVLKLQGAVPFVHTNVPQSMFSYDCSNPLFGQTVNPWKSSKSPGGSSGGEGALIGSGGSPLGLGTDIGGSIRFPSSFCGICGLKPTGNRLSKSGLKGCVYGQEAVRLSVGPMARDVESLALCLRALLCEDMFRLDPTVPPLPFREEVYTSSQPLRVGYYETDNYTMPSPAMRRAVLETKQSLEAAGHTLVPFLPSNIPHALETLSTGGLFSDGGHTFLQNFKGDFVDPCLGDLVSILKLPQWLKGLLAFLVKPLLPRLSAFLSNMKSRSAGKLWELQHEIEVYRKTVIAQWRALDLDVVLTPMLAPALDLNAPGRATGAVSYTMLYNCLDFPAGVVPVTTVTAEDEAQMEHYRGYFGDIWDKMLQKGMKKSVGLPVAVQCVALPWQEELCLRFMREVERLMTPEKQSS

[10] = biological target: T1, Cholinesterase; test: Binding affinity to human BuChE (unknown origin) assessed as overall carbamolyation rate at 0.025 to 100 uM incubated for 60 mins
[11] = biological target: T1, Cholinesterase; test: Binding affinity to human BuChE (unknown origin) assessed as equilibrium dissociation constant at 0.025 to 100 uM incubated for 60 mins
[12] = biological target: T1, Cholinesterase; test: Binding affinity to human BuChE (unknown origin) assessed as decarbamolyation rate at 0.025 to 100 uM incubated for 60 mins; details: dose 0.025-100 µM
[13] = in vitro; details: PAMPA, pH 7.4
Description: Permeability of the compound in PBS at pH 7.4 incubated for 18 hrs by PAMPA-BBB assay

[14] = tested on: L02; test: Cytotoxicity against human L02 cells assessed as reduction in cell viability at 25 uM incubated for 24 hrs by MTT assay; assay type: toxicity, cell-based; details: l02, 24 h
[15] = tested on: PC-12; test: Neuroprotective activity against H2O2 induced rat PC12 cells assessed as cell viability measured after 24 hrs by MTT assay; assay type: functional, cell-based; details: dose 6.25-50 µM
[16] = biological target: T1, Cholinesterase; test: Binding affinity to human BuChE (unknown origin) assessed as carbamolyation rate at 0.025 to 100 uM incubated for 60 mins; details: dose 0.025-100 µM

T1 sequence (P06276 whole entry): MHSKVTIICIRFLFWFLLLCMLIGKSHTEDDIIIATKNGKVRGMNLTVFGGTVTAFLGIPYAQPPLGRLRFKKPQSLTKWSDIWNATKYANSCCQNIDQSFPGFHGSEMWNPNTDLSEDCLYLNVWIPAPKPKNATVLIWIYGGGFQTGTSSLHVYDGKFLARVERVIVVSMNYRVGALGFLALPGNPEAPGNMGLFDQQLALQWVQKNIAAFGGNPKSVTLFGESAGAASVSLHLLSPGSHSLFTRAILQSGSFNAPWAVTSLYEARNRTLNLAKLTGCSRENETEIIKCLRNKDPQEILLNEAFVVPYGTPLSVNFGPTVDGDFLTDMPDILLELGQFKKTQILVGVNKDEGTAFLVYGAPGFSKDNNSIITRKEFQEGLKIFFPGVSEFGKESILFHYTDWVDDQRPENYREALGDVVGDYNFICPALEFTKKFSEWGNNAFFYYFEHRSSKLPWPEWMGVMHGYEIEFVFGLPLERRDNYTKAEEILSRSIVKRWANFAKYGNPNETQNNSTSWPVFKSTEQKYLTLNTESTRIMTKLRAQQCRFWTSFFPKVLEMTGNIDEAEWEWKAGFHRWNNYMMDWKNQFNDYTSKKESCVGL
Chain of Cholinesterase (Equus caballus, UniProt P81908) (P81908 whole entry): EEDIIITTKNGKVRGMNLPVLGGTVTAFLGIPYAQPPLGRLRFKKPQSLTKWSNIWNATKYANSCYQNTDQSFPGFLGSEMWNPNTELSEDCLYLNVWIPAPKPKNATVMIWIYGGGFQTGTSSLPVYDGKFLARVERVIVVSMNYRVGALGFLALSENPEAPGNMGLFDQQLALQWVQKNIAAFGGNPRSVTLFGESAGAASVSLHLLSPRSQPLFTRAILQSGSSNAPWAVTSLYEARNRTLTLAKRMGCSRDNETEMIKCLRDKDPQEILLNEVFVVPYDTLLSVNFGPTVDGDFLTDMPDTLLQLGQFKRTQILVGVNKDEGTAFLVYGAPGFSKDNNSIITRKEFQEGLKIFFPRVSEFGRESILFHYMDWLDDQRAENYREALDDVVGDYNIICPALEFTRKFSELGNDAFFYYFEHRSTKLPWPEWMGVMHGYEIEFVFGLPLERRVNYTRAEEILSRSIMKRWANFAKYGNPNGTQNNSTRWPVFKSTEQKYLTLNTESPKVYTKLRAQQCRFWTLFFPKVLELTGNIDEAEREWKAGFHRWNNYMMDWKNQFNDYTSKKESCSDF
Chain of Acetylcholinesterase (Homo sapiens) (P22303 whole entry): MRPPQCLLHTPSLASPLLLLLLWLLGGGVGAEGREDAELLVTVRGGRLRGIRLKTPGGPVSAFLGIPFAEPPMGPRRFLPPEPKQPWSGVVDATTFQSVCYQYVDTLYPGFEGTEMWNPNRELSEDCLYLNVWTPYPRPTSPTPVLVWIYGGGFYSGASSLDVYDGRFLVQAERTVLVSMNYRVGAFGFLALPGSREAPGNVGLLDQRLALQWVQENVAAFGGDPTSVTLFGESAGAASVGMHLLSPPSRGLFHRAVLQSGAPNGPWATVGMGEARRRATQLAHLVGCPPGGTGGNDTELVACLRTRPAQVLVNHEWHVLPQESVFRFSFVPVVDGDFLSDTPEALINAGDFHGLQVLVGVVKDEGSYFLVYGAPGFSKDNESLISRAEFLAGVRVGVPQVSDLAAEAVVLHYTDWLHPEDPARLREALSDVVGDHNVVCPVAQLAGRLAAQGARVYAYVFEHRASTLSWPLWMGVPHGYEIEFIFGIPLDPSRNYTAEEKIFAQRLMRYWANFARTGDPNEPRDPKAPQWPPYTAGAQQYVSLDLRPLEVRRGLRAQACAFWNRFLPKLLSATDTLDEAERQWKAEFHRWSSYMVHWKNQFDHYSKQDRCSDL
Chain of Acetylcholinesterase (Electrophorus electricus) (O42275 24-633 limits assumed): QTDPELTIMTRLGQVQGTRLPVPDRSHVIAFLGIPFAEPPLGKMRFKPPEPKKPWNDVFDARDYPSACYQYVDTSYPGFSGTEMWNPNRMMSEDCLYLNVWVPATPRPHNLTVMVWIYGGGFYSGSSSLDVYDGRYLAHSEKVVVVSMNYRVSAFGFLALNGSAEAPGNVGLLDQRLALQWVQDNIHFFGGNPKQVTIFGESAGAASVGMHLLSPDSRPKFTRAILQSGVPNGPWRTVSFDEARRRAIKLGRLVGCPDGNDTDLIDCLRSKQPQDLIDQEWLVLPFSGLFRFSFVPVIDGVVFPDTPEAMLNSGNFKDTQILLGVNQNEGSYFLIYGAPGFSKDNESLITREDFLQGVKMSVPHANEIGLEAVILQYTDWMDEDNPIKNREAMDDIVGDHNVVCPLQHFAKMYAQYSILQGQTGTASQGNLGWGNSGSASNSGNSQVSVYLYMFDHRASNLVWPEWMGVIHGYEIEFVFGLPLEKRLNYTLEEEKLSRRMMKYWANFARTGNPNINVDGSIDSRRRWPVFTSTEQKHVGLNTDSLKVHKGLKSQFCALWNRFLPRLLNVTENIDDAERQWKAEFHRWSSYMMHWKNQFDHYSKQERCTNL

Row | Structure (SMILES) | IC50 [4] [nM] | inhibition [5] | also measured
1 | COc1cc2c(cc1OC)C(=O)C(CC1CCN(Cc3ccccc3)CC1)C2 (centres undefined) [DONEPEZIL] | – | – | Activity [1]: 83.4%; Activity [2]: 43%; Activity [3]: Non-toxic
2 | CCN(C)C(=O)Oc1cc(OC)ccc1C(C)=O | 3680 | 1.7% | –
3 | Cc1ccc(C(C)C)cc1OC(=O)N1CCCC1 | 680 | inactive | –
4 | C=CCc1ccc(OC(=O)NC)c(OC)c1 | – | 42% | inhibition [6]: 53%
5 | COc1ccc(C(C)=O)c(OC(=O)N(C)Cc2ccc(Br)cc2)c1 | 2810 | 34% | –
6 | COc1ccc(C(C)=O)c(OC(=O)Nc2ccc(Cl)cc2)c1 | 1270 | 4.6% | –
7 | COc1ccc(C(C)=O)c(OC(=O)N2CCc3cc(OC)c(OC)cc3C2)c1 | 3520 | inactive | –
8 | C=CCc1ccc(OC(=O)N(C)CC)c(OC)c1 | – | 69% | inhibition [6]: 74%
9 | COc1ccc(C(C)=O)c(OC(=O)N2CCC(C)CC2)c1 | 80 | 33% | inhibition [7]: 23%; IC50 [8]: 1930 nM; IC50 [9]: 28400 nM
10 | C=CCc1ccc(OC(=O)N(C)Cc2ccc(Br)cc2)c(OC)c1 | – | inactive | inhibition [6]: 57%
11 | COc1ccc(C(C)=O)c(OC(=O)N2CCSC2)c1 | 640 | 44% | –
12 | COc1ccc(C(C)=O)c(OC(=O)N(C)Cc2cccc(F)c2)c1 | 400 | 20% | –
13 | O=C(Oc1ccc([N+](=O)[O-])cc1)N1CCN(Cc2cccc(Oc3ccccc3)c2)CC1 | – | – | IC50 [9]: 11 nM
14 | Cc1ccc(C(C)C)cc1OC(=O)N(C)Cc1ccc(Br)cc1 | 1960 | 32% | –
15 | Cc1ccc(C(C)C)cc1OC(=O)N(C)C | 590 | 62% | –
16 | CNC(=O)Oc1cc(C(C)C)ccc1C | 2960 | 56% | –
17 | Cc1ccc(C(C)C)cc1OC(=O)N(C)Cc1cccc(Cl)c1 | 1130 | 36% | –
18 | COc1ccc(C(C)=O)c(OC(=O)N2CCC(Cc3ccccc3)CC2)c1 | 310 | 43% | –
19 | CCN(C)C(=O)Oc1cccc([C@H](C)N(C)C)c1 [RIVASTIGMINE] | – | – | inhibition [7]: 4.65%; IC50 [9]: 14000 nM

Row | Structure (SMILES) | IC50 [4] [nM] | inhibition [5] | also measured
20 | CNC(=O)Oc1cc(OC)ccc1C(C)=O | 2540 | 23% | –
21 | COc1ccc(C(C)=O)c(OC(=O)N(C)Cc2cccc(Br)c2)c1 | 3410 | inactive | –
22 | COc1ccc(C(C)=O)c(OC(=O)N2CCCCC2)c1 | 6 | 6.9% | Ki [10]: 0.31 10^-3/uM/min; inhibition [7]: inactive; IC50 [8]: 113 nM; Activity [1]: 81.4%; IC50 [9]: 8020 nM; Kd [11]: 300 nM; K [12]: 0.024 min⁻¹; Activity [2]: 42%; Activity [3]: Non-toxic; Papp at 18 h [13]: 17.5 ×10⁻⁶ cm/s; Activity [14]: 81.6%; Activity [15]: Dose-dependent-effect; K [16]: 0.41 min⁻¹
23 | COc1ccc(C(C)=O)c(OC(=O)N(C)C)c1 | 1640 | 8.3% | –
24 | CCN(C)C(=O)Oc1cc(C(C)C)ccc1C | 780 | inactive | –
25 | C=CCc1ccc(OC(=O)N(C)Cc2ccccc2)c(OC)c1 | – | 25% | inhibition [6]: inactive
26 | Cc1ccc(C(C)C)cc1OC(=O)N1CCCCC1 | 30 | – | –
27 | COc1ccc(C(C)=O)c(OC(=O)N(C)Cc2ccc(Cl)cc2)c1 | 57 | 5.8% | inhibition [7]: inactive; IC50 [8]: 89 nM; IC50 [9]: 16600 nM
28 | COc1ccc(C(C)=O)c(OC(=O)N(C)Cc2ccccc2F)c1 | 940 | inactive | –
29 | C=CCc1ccc(OC(=O)N(C)C)c(OC)c1 | – | inactive | inhibition [6]: 69%
30 | COc1ccc(C(C)=O)c(OC(=O)N(C)Cc2ccccc2)c1 | 190 | 6.6% | –
31 | Cc1ccc(C(C)C)cc1OC(=O)N(C)Cc1cccc(Br)c1 | 3810 | 37% | –
32 | C=CCc1ccc(OC(=O)N(C)Cc2cccc(Br)c2)c(OC)c1 | – | 17% | inhibition [6]: 67%
33 | COc1ccc(C(C)=O)c(OC(=O)N2CCCC2)c1 | 1930 | 21% | –
34 | C=CCc1ccc(OC(=O)N2CCCCC2)c(OC)c1 | 310 | 42% | –
35 | C=CCc1ccc(OC(=O)N2CCCC2)c(OC)c1 | 2000 | inactive | –
36 | COc1ccc(C(C)=O)c(OC(=O)N2CCc3ccccc3C2)c1 | 11500 | 27% | –
37 | C=CCc1ccc(OC(=O)N2CCc3ccccc3C2)c(OC)c1 | – | 65% | inhibition [6]: 23%
38 | CCN(Cc1ccc(Cl)cc1)C(=O)Oc1cc(OC)ccc1C(C)=O | 420 | inactive | –

From ChEMBL document CHEMBL6087398, “Natural phenol carbamates: Selective BuChE/FAAH dual inhibitors show neuroprotection in an Alzheimer's disease mouse model” (Eur J Med Chem, 2025)
